14 compounds from PubChem BioAssay (NCI) can be followed below.

Test systems include IGROV1 ovarian; CAKI-1 renal; SK-MEL-2 melanoma; BT-549 breast; NCI-H522 lung; SK-MEL-28 melanoma; UACC-62 melanoma; MALME-3M melanoma; HL-60(TB) leukemia; MDA-MB-435.
Common to all, as to experiment: growth of human tumour cells (NCI), 48 h

Structures are written as SMILES. Several values for one entry are separate records, joined by “and”; a condition that tells them apart may be missing. Equal entries are not always repeated.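 Results reflect a 48-hour exposure of cells in 96-well plates to compound at five concentrations. GI50 = concentration required for 50% inhibition of growth. TGI denotes the concentration required for complete inhibition of growth.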 Bounds are passed on as bounds.

Regarding `COc1ccccc1NCC(=O)Nn1c(C)nc2ccc(S(=O)(=O)Nc3ccccc3OC)cc2c1=O`, the TGI in the assay on IGROV1 ovarian, in the assay on CAKI-1 renal, in the assay with SK-MEL-2 melanoma, in the assay on BT-549 breast, in the assay on NCI-H522 lung and with SK-MEL-28 melanoma was above 100 µM throughout. Moreover, the TGI with UACC-62 melanoma is above 100 µM; in the assay with MALME-3M melanoma it was above 100 µM; in the assay on HL-60(TB) leukemia it was above 100 µM; in the assay on MDA-MB-435, 85.2 µM.

As to `COC(=O)[C@H](CCSC)NC(=O)c1ccc(CNC(=O)/C(C)=C/c2ccccc2)cc1`, the TGI with IGROV1 ovarian was above 100 µM; in the assay on CAKI-1 renal, above 100 µM; with SK-MEL-2 melanoma, 66.3 µM; in the assay on BT-549 breast, 60.9 µM; in the assay with NCI-H522 lung, 32.5 µM; with SK-MEL-28 melanoma it was 64.7 µM. The results for the TGI with UACC-62 melanoma, in the assay with MALME-3M melanoma and in the assay on MDA-MB-435 were above 100 µM, 29.5 µM and above 100 µM, respectively.

Consider `CCCC1(N)CC(OC)OC(C)C1O` (stereo not drawn), for which the TGI in the assay on IGROV1 ovarian, in the assay on CAKI-1 renal, with SK-MEL-2 melanoma, with BT-549 breast, with NCI-H522 lung and in the assay with SK-MEL-28 melanoma was above 100 µM in each case. Moreover, the TGI in the assay on UACC-62 melanoma, in the assay on MALME-3M melanoma, in the assay on HL-60(TB) leukemia and with MDA-MB-435 was above 100 µM throughout.

For `Cc1cc(C)c(N=Nc2c(O)c(S(=O)(=O)O)cc3cc(S(=O)(=O)O)ccc23)cc1C`, the TGI in the assay on IGROV1 ovarian, in the assay with CAKI-1 renal, in the assay with SK-MEL-2 melanoma, in the assay on BT-549 breast, in the assay with NCI-H522 lung and with SK-MEL-28 melanoma was above 100 µM each time. Also, the TGI in the assay on UACC-62 melanoma, in the assay with MALME-3M melanoma and in the assay with MDA-MB-435 was above 100 µM in each case.

`Cc1ccc2c(=O)c(-c3n[nH]c(=S)s3)c[nH]c2n1`: the TGI in the assay with IGROV1 ovarian, in the assay on CAKI-1 renal, in the assay with SK-MEL-2 melanoma, with BT-549 breast, with NCI-H522 lung and in the assay with SK-MEL-28 melanoma was above 100 µM each time. Moreover, the TGI in the assay with UACC-62 melanoma, with MALME-3M melanoma, in the assay on HL-60(TB) leukemia and in the assay on MDA-MB-435 was above 100 µM throughout.

On to `CCOP(=O)(OCC)C(Nc1ccc(F)cc1)c1ccccc1` (stereo not drawn), for which the TGI with IGROV1 ovarian, in the assay on CAKI-1 renal, with SK-MEL-2 melanoma, in the assay with BT-549 breast, in the assay with NCI-H522 lung and with SK-MEL-28 melanoma was above 100 µM in each case. Besides, the TGI with UACC-62 melanoma, in the assay on MALME-3M melanoma, with HL-60(TB) leukemia and with MDA-MB-435 was above 100 µM each time.

`CC(C)c1cccc(C(C)C)c1OS(=O)(=O)NC(=O)OC(C(F)(F)F)C(F)(F)F`: the TGI in the assay on IGROV1 ovarian, in the assay with CAKI-1 renal, in the assay with SK-MEL-2 melanoma, in the assay with BT-549 breast, in the assay with NCI-H522 lung and with SK-MEL-28 melanoma was above 100 µM each time. For the same compound, the TGI in the assay with MALME-3M melanoma, with HL-60(TB) leukemia and in the assay with MDA-MB-435 was above 100 µM throughout.

With `OC(CN1CCCCC1)c1ccc(/C=C/c2ccc(Cl)cc2)cc1` (stereo not drawn), the TGI in the assay on IGROV1 ovarian was 66.5 µM; in the assay on SK-MEL-2 melanoma, 50.9 µM; with BT-549 breast, above 100 µM; in the assay on NCI-H522 lung it was 72.7 µM; in the assay on SK-MEL-28 melanoma it was 42.6 µM; in the assay with UACC-62 melanoma, 44.9 µM. The TGI in the assay with MALME-3M melanoma, in the assay with HL-60(TB) leukemia and in the assay on MDA-MB-435 was above 100 µM in each case.

In the case of `C=CCC(CNC(=O)OCc1ccccc1)OC(=O)OCc1ccccc1` (stereo not drawn), the TGI with IGROV1 ovarian, in the assay with CAKI-1 renal, with SK-MEL-2 melanoma, with BT-549 breast, in the assay on NCI-H522 lung and in the assay on SK-MEL-28 melanoma was above 100 µM in each case. The TGI in the assay on UACC-62 melanoma, in the assay with HL-60(TB) leukemia and in the assay with MDA-MB-435 was above 100 µM each time.

Regarding `CC1CC[C@@]2(OC1)OC1C[C@H]3[C@@H]4CCC5CC(O)CC[C@]5(C)[C@H]4C/C(=N\N(C)C)[C@]3(C)C1[C@@H]2C` (stereo partly drawn), the TGI with IGROV1 ovarian is above 100 µM; in the assay with SK-MEL-2 melanoma, 45.6 µM; with BT-549 breast, 83.5 µM; in the assay on SK-MEL-28 melanoma, above 100 µM; in the assay on UACC-62 melanoma, above 100 µM; with MALME-3M melanoma, above 100 µM. In addition, the results for the TGI with HL-60(TB) leukemia and with MDA-MB-435 were 70.5 µM and 58.2 µM, respectively.

`CC(=O)C1(O)Cc2c(O)c3c(c(O)c2C(OC2CC(N)C(O)C(C)O2)C1)C(=O)c1ccccc1C3=O` (stereo not drawn): the GI50 is 38.3 nM with IGROV1 ovarian; 60.3 nM with BT-549 breast; 18.3 nM in the assay with NCI-H522 lung; 151 nM and 49 nM in the assay with SK-MEL-28 melanoma; below 12.3 nM in the assay with UACC-62 melanoma; 67.4 nM in the assay on MDA-MB-435. For the same compound, the TGI in the assay on IGROV1 ovarian is 0.525 µM and 0.503 µM; with BT-549 breast, 0.652 µM and 1.2 µM; with NCI-H522 lung, 0.119 µM and 0.0672 µM; with SK-MEL-28 melanoma, 0.49 µM and 0.367 µM; in the assay on UACC-62 melanoma, 0.306 µM and 0.0842 µM; in the assay with MALME-3M melanoma it was 0.0666 µM. In addition, the TGI was 0.0806 µM and < 0.0108 µM in the assay on HL-60(TB) leukemia; 0.389 µM and 0.47 µM in the assay with MDA-MB-435.

Turning to `O=[N+]([O-])c1cc(Cl)ccc1S(=O)(=O)N1CCCc2cc(Cl)ccc21`, the TGI with IGROV1 ovarian, with CAKI-1 renal, in the assay on SK-MEL-2 melanoma, in the assay with BT-549 breast, in the assay with SK-MEL-28 melanoma and in the assay on UACC-62 melanoma was above 100 µM in each case. Besides, the TGI in the assay on MALME-3M melanoma and in the assay on MDA-MB-435 was above 100 µM throughout.

On to `NCCCC[C@H](N)C(=O)Nc1ccc(-c2nc3ccccc3s2)cc1Cl`, for which the TGI with IGROV1 ovarian was 22.7 µM; with CAKI-1 renal it was 19.2 µM; in the assay on SK-MEL-2 melanoma, 32.7 µM; in the assay on BT-549 breast, above 42.2 µM; with NCI-H522 lung it was 11 µM; in the assay with SK-MEL-28 melanoma, 23.4 µM. The TGI in the assay with UACC-62 melanoma was determined as 28.5 µM; in the assay with MALME-3M melanoma, 28.3 µM; in the assay on MDA-MB-435, 9.58 µM.

Turning to `OC(c1ccccc1)(c1cccnc1)C(O)(c1ccccc1)c1cccnc1` (stereo not drawn), the TGI with IGROV1 ovarian, in the assay on CAKI-1 renal, in the assay with SK-MEL-2 melanoma, in the assay with BT-549 breast, in the assay with NCI-H522 lung and in the assay on UACC-62 melanoma was above 100 µM each time. Further, the TGI in the assay on MALME-3M melanoma, with HL-60(TB) leukemia and with MDA-MB-435 was above 100 µM each time.
